# What was measured:
# [1] = target: Voltage-gated inwardly rectifying potassium channel KCNH2 (Homo sapiens, UniProt Q12809); assay: Displacement of [35S]-MK-499 from hERG expressed in HEK293 cells […]; format: toxicity, cell-based
# [2] = target: Metabotropic glutamate receptor 1 (Homo sapiens, UniProt Q13255); assay: Negative allosteric modulation at mGluR1 receptor (unknown origin) assessed as effect on intracellular calcium flux measured after 5 min by Fluo-4AM dye based FLIPR analysis; format: functional, cell-based
# [3] = Fraction unbound in monkey plasma; format: ADME, cell-free, Macaca mulatta; conditions: rhesus monkey
# Cytochrome P450 2C8 = target: T1, Cytochrome P450 2C8 (Homo sapiens, UniProt P10632); assay: […] of CYP2C8 (unknown origin); format: ADME
# T1 sequence (P10632 whole entry): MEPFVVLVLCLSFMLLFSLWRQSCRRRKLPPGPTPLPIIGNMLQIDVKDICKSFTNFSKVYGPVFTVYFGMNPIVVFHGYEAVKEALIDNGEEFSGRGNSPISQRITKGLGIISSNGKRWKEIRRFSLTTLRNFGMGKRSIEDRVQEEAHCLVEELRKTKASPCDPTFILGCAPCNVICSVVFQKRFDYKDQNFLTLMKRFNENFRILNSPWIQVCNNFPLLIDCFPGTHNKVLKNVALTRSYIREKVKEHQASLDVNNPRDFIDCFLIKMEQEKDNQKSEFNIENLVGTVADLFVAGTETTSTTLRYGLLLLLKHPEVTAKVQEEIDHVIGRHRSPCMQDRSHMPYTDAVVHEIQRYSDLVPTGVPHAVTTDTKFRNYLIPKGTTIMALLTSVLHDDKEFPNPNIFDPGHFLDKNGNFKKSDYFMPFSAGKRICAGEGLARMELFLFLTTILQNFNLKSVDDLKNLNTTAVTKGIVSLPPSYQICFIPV
# [4] = Fraction unbound in dog plasma; format: ADME, cell-free, Canis lupus familiaris
# [5] = Fraction unbound in rat plasma; format: ADME, cell-free
# [6] = Solubility of the compound in SGF buffer; format: physicochemical
# [7] = Unbound plasma concentration in rhesus monkey at 0.01 to 1 mg/kg, IM; format: ADME, organism-based, Macaca mulatta; conditions: in vivo, dose 0.01-1 mg/kg
# [8] = Clearance in dog at 0.25 mg/kg, iv; format: ADME, organism-based, Canis lupus familiaris; conditions: in vivo
# [9] = Volume of distribution in rat at 1 mg/kg, iv; format: ADME, organism-based; conditions: in vivo
# Cytochrome P450 1A2 = target: T2, Cytochrome P450 1A2 (Homo sapiens, UniProt P05177); assay: […] of CYP1A2 (unknown origin); format: ADME
# T2 sequence (P05177 whole entry): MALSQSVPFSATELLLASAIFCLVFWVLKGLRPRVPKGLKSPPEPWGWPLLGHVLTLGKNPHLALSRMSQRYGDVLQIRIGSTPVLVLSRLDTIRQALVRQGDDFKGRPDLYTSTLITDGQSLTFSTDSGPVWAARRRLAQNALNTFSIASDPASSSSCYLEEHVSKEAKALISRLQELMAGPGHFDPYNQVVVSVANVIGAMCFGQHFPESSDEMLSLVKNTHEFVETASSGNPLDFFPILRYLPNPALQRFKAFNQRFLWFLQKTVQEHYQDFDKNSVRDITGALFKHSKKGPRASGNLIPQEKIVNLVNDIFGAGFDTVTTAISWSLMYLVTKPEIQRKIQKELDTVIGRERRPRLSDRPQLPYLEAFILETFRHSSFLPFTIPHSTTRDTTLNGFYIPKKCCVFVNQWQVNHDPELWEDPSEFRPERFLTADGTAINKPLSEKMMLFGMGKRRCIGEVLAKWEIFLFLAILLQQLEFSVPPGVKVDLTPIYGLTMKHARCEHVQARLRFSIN
# [10] = Effective half life in monkey at 0.5 mg/kg, iv; format: ADME, organism-based, Macaca mulatta; conditions: rhesus monkey, in vivo, read-out: t1/2eff (converted)
# Cytochrome P450 2B6 = target: T3, Cytochrome P450 2B6 (Homo sapiens, UniProt P20813); assay: […] of CYP2B6 (unknown origin); format: ADME
# T3 sequence (P20813 whole entry): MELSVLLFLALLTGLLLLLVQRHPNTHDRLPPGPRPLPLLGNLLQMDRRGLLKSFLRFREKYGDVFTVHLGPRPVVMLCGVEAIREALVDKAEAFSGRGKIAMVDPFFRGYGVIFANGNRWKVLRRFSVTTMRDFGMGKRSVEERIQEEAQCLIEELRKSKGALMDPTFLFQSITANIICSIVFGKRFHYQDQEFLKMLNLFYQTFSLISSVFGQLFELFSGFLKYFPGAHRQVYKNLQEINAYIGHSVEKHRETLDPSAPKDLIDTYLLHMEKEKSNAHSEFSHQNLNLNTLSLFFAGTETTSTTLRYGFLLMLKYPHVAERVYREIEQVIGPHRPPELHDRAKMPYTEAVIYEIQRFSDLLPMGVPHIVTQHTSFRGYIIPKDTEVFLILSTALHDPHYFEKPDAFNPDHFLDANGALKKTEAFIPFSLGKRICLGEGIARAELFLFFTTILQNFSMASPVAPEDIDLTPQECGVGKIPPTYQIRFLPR
# [11] = target: Metabotropic glutamate receptor 4 (Homo sapiens, UniProt Q14833); assay: Negative allosteric modulation at mGluR4 receptor (unknown origin) assessed as effect on intracellular calcium flux measured after 5 min by Fluo-4AM dye based FLIPR analysis; format: functional, cell-based
# Cytochrome P450 2D6 = Cytochrome P450 2D6 (Homo sapiens, UniProt P10635); assay: […] of CYP2D6 (unknown origin); format: ADME
# [12] = Clearance in monkey at 0.5 mg/kg, iv; format: ADME, organism-based, Macaca mulatta; conditions: rhesus monkey, in vivo
# [13] = Effective half life in rat at 1 mg/kg, iv; format: ADME, organism-based; conditions: in vivo, read-out: t1/2eff (converted)
# [14] = Fraction unbound in human plasma; format: ADME, cell-free
# Cytochrome P450 2C9 = Cytochrome P450 2C9 (Homo sapiens, UniProt P11712); assay: […] of CYP2C9 (unknown origin); format: ADME
# [15] = target: Metabotropic glutamate receptor 6 (Homo sapiens, UniProt O15303); assay: Negative allosteric modulation at mGluR6 receptor (unknown origin) assessed as effect on intracellular calcium flux measured after 5 min by Fluo-4AM dye based FLIPR analysis; format: functional, cell-based
# [16] = Solubility of the compound in FaSSIF; format: physicochemical
# [17] = Oral bioavailability in rat at 2 mg/kg; format: ADME, organism-based; conditions: in vivo
# [18] = Volume of distribution in monkey at 0.5 mg/kg, iv; format: ADME, organism-based, Macaca mulatta; conditions: rhesus monkey, in vivo
# [19] = Volume of distribution in dog at 0.25 mg/kg, iv; format: ADME, organism-based, Canis lupus familiaris; conditions: in vivo
# [20] = Effective half life in dog at 0.25 mg/kg, iv; format: ADME, organism-based, Canis lupus familiaris; conditions: in vivo, read-out: t1/2eff (converted)
# Cytochrome P450 3A4 = Cytochrome P450 3A4 (Homo sapiens, UniProt P08684); assay: […] of CYP3A4 (unknown origin); format: ADME
# [21] = Mutagenicity in Salmonella typhimurium in presence of S9 fraction by Ames test; format: toxicity, subcellular; conditions: salmonella enterica subsp. enterica serovar typhimurium
# [22] = Oral bioavailability in dog at 0.5 mg/kg; format: ADME, organism-based, Canis lupus familiaris; conditions: in vivo
# Cytochrome P450 2C19 = Cytochrome P450 2C19 (Homo sapiens, UniProt P33261); assay: […] of CYP2C19 (unknown origin); format: ADME
# [23] = Clearance in rat at 1 mg/kg, iv; format: ADME, organism-based; conditions: in vivo
# [24] = Apparent permeability in […] LLC-MDR1 cell; format: ADME, cell-based; conditions: LLC-PK1
# [25] = target: Metabotropic glutamate receptor 8 (Homo sapiens, UniProt O00222); assay: Negative allosteric modulation at mGluR8 receptor (unknown origin) assessed as effect on intracellular calcium flux measured after 5 min by Fluo-4AM dye based FLIPR analysis; format: functional, cell-based
# [26] = Solubility of the compound in FeSSIF; format: physicochemical
# Sequence of Metabotropic glutamate receptor 6 (O15303 whole entry): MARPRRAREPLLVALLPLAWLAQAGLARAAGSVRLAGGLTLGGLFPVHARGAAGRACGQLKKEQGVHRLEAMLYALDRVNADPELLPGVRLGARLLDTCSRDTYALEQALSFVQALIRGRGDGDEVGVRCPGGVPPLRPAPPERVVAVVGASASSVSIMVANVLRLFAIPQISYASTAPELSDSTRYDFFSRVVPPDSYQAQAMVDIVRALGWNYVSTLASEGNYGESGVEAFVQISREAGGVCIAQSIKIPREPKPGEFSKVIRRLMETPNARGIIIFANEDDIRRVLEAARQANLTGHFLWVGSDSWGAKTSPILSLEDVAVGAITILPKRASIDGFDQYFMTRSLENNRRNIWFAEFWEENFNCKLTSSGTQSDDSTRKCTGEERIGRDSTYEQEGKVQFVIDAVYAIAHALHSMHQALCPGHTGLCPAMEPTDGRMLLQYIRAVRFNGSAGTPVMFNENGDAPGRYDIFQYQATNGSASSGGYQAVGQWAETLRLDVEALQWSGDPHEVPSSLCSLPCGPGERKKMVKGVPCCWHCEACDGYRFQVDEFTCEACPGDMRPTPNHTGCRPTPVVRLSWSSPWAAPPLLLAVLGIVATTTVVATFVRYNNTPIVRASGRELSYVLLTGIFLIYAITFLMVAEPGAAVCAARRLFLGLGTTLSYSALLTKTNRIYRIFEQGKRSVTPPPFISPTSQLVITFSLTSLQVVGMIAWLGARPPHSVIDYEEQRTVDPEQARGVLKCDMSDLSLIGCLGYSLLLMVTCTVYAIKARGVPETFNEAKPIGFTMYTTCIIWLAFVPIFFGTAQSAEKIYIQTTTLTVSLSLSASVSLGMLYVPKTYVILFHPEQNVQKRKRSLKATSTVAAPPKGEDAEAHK
# Sequence of Metabotropic glutamate receptor 1 (Q13255 whole entry): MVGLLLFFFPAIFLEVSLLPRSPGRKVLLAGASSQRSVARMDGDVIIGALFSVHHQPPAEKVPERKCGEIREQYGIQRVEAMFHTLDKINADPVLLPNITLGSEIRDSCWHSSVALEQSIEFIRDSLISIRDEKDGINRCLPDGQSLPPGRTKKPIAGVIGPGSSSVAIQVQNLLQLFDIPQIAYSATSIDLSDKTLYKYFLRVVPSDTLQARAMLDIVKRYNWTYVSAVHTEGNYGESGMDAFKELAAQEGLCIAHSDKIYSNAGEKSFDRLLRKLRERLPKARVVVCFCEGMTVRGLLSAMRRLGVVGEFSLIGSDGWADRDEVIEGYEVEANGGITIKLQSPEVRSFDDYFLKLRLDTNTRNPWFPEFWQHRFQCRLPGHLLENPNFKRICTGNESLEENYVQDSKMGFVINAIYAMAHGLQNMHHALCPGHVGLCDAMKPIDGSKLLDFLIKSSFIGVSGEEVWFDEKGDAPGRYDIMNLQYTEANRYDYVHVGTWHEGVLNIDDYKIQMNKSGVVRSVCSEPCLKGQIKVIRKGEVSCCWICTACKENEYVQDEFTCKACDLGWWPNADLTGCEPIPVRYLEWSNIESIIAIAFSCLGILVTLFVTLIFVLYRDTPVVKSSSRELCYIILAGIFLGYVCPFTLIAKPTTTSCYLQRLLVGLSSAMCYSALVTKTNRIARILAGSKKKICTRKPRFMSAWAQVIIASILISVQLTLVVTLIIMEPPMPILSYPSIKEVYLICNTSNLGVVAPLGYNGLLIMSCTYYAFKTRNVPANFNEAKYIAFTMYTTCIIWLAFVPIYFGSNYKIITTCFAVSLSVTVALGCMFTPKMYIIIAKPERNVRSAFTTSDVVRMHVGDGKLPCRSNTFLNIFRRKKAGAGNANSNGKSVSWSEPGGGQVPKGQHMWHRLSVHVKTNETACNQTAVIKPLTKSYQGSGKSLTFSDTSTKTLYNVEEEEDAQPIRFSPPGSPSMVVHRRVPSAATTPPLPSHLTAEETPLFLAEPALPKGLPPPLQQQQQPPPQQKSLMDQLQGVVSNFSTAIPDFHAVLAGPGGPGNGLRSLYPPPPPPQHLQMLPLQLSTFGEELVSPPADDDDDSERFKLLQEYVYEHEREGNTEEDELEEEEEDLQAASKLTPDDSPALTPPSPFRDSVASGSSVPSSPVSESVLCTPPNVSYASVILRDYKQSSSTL
# Sequence of Voltage-gated inwardly rectifying potassium channel KCNH2 (Q12809 whole entry): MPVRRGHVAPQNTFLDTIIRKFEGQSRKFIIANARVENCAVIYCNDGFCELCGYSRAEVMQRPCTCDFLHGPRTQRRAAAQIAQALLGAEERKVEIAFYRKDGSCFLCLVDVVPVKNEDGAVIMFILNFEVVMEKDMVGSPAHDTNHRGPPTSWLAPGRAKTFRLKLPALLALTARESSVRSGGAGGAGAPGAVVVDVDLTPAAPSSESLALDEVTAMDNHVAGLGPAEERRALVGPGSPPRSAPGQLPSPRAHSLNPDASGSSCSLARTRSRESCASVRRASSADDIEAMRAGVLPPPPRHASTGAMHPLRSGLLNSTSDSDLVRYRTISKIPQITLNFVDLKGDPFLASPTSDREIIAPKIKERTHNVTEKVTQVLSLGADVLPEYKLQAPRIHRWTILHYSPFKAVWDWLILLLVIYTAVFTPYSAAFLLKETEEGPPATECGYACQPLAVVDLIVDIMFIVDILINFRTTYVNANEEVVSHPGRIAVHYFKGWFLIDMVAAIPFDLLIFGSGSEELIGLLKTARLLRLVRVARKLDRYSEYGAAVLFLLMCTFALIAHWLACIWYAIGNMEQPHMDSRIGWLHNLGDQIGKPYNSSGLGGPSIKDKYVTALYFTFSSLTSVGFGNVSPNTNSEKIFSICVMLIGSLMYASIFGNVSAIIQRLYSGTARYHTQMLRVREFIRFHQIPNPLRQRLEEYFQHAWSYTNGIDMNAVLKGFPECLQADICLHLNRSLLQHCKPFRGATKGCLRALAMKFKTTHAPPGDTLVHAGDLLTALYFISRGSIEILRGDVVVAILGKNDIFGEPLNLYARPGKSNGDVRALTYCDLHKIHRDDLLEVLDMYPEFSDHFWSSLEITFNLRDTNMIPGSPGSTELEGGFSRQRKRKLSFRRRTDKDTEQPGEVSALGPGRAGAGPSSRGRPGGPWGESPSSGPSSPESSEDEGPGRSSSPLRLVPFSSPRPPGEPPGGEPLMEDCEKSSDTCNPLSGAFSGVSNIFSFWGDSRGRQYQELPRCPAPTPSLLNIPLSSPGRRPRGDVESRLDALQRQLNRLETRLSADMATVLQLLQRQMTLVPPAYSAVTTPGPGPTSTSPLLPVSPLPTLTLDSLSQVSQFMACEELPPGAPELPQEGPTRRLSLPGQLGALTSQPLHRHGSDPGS
# Sequence of Cytochrome P450 2C9 (P11712 whole entry): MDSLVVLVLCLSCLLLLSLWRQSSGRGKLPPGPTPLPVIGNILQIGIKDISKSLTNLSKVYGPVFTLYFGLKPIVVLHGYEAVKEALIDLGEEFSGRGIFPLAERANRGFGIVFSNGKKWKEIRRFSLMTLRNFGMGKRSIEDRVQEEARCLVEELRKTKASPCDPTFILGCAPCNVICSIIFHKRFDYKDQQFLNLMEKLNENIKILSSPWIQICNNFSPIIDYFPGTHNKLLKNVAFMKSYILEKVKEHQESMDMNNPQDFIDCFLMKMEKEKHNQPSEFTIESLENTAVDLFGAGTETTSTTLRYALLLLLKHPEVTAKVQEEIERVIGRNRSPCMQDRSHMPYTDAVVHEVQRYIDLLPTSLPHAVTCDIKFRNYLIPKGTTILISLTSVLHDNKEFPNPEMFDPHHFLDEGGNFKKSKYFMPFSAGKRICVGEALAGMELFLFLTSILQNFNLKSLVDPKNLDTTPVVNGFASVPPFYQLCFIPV
# Sequence of Cytochrome P450 2C19 (P33261 whole entry): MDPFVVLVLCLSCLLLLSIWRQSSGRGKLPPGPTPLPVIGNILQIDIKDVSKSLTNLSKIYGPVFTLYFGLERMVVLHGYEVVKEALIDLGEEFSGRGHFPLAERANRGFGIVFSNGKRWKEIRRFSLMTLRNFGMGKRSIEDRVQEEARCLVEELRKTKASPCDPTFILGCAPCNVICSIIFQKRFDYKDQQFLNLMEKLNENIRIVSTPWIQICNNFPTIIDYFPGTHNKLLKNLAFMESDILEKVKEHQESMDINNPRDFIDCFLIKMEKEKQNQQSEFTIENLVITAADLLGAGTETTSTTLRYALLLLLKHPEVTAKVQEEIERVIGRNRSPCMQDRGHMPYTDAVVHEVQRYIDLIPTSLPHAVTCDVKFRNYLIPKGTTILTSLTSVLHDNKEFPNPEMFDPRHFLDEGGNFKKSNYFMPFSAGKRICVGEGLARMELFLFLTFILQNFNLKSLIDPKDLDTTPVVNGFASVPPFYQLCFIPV
# Sequence of Cytochrome P450 2D6 (P10635 whole entry): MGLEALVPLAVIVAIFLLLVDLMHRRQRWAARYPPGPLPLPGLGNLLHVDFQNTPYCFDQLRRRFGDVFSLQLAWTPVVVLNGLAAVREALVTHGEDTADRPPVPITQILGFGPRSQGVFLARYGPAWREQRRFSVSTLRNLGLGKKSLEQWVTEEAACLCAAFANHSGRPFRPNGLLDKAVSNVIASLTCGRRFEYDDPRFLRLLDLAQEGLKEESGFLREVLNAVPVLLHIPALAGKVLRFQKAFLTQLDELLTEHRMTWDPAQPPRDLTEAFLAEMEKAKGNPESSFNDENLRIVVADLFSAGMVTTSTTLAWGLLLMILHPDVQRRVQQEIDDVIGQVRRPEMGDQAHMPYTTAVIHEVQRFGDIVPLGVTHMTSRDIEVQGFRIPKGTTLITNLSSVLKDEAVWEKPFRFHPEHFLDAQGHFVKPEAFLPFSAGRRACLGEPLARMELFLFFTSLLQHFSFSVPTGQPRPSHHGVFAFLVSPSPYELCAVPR
compound,measurement,setting,value
C[C@@H]1CN(Cc2ccc3c(-c4cnn(C)c4)cc(C(N)=O)nc3c2)C[C@H](C(F)(F)F)O1,IC50,[1],22 µM
same,IC50,[2],> 10 µM
same,fraction unbound,[3],0.043
same,IC50,Cytochrome P450 2C8,> 26 µM
same,fraction unbound,[4],0.045
same,fraction unbound,[5],0.04
same,solubility,[6],4100 µg/mL
same,Cp(f),[7],3 nM
same,clearance,[8],24 mL/min/kg
same,Vd,[9],5.7 L/kg
same,IC50,Cytochrome P450 1A2,> 26 µM
same,half-life,[10],1.7 h
same,IC50,Cytochrome P450 2B6,> 26 µM
same,IC50,[11],> 10 µM
same,IC50,Cytochrome P450 2D6,> 26 µM
same,clearance,[12],22 mL/min/kg
same,half-life,[13],1.8 h
same,fraction unbound,[14],0.025
same,IC50,Cytochrome P450 2C9,> 26 µM
same,IC50,[15],> 10 µM
same,solubility,[16],440 µg/mL
same,bioavailability,[17],32%
same,Vd,[18],3.2 L/kg
same,Vd,[19],7.3 L/kg
same,half-life,[20],3.3 h
same,IC50,Cytochrome P450 3A4,> 26 µM
same,Activity,[21],Non-Toxic
same,bioavailability,[22],34%
same,IC50,Cytochrome P450 2C19,> 26 µM
same,clearance,[23],36 mL/min/kg
same,Papp,[24],32 ×10⁻⁶ cm/s
same,IC50,[25],> 10 µM
same,solubility,[26],2100 µg/mL

# Source: ChEMBL document CHEMBL5360658, “Discovery of MK-8768, a Potent and Selective mGluR2 Negative Allosteric Modulator” (ACS Med Chem Lett, 2023)
